Test results published in patent publication US20030069271A1, “Quinolone compounds for use in treating viral infections” (priority 1999, published 2003).
Read-outs that look alike come from different tables or passages of the source.

Tested on: HIV
Test: Anti-HIV activity in MT4 cells (method of Averett, J. Virol. Methods 1989)
Format: cell-based
Method: The compounds of the present invention were tested for anti-HIV activity in MT4 cells according to the method described by Averett, D. R., J. Virol.

[1] = Human immunodeficiency virus 1, read-out: Activity Range (IC50)

Question: CCCc1c(OC2CCCC2)c2cc(C)ccc2[nH]c1=O [Example 10, 4-Cyclopentyloxy-6-methyl-3-propyl-2(1H)-quinolinone] was tested. Which IC50 [1] did it give?
Answer: 500 to 2000 nM

Question: How did the IC50 [1] turn out when CC(C)c1c(OC#CC2CC2)c2cc(Cl)ccc2[nH]c1=O [Example 46, 6-Chloro-4-[(2-Cyclopropylethynyl)oxy]-3-isopropyl-2(1H)-quinolinone] was run?
Answer: 5 to 100 nM

Question: Which IC50 [1] does the source give for CC(C)c1c(OC2CCCCC2)c2cc(Cl)ccc2[nH]c1=O [Example 9, 6-Chloro-4-(cyclohexyloxy)-3-isopropyl-2(1H)-quinolinone] here?
Answer: 5 to 100 nM

Question: Which IC50 [1] does the source give for CCCc1c(OC2CCCCC2)c2cc(Cl)ccc2[nH]c1=S [Example 20, 6-Chloro-4-(cyclohexyloxy)-3-propyl-2(1H)-quinolinethione] here?
Answer: 5 to 100 nM

Question: CCCc1c(OC#CC2CC2)c2cc(Cl)ccc2[nH]c1=O [Example 35, 6-Chloro-4-[(2-cyclopropylethynyl)oxy]-3-propyl-2(1H)-quinolinone] was tested. Which IC50 [1] did it give?
Answer: 5 to 100 nM

Question: CCCc1c(OCC2CC2)c2cc(Cl)ccc2[nH]c1=O [Example 3, 6-Chloro-4-(cyclopropylmethoxy)-3-propyl-2(1H)-quinolinone] was tested. Which IC50 [1] did it give?
Answer: 100 to 500 nM

Question: For CC(C)Cc1c(OC#CC2CC2)c2cc(F)ccc2[nH]c1=O [Example 47, 4-[(2-Cyclopropylethynyl)oxy]-6-fluoro-3-isobutyl-2(1,H)-quinolinone], which IC50 (read-out: Activity Range (IC50)) is on record?
Answer: 5 to 100 nM

Question: With CCCc1c(OCC2CCCCC2)c2cc(Cl)ccc2[nH]c1=O [Example 5, 6-Chloro-4(cyclohexylmethoxy)-3-propyl-2(1H)-quinolinone] as the molecule, how does the IC50 [1] read?
Answer: 500 to 2000 nM

Question: With CCCc1c([S+]([O-])C2CCCCC2)c2cc(Cl)ccc2[nH]c1=O (centres unmarked) [Example 24, 6-Chloro-4-(cyclohexylsulfinyl)-3-propyl-2(1H)-quinolinone] as the molecule, how does the IC50 [1] read?
Answer: 100 to 500 nM

Question: With CCCc1c(OCC2OCCO2)c2cc(Cl)ccc2[nH]c1=O [Example 6, 6-Chloro-4-(1,3-dioxolan-2-ylmethoxy)-3-propyl-2(1H)-quinolinone] as the molecule, how does the IC50 [1] read?
Answer: 500 to 2000 nM

Question: CCc1c(OC#CC2CC2)c2cc(F)ccc2[nH]c1=O [Example 45, 4-[(2-Cyclopropylethynyl)oxy]-3-ethyl-6-fluoro-2(1H)-quinolinone] was tested. Which IC50 [1] did it give?
Answer: 5 to 100 nM

Question: Which IC50 [1] does the source give for CC(C)c1c(OC#CC2CC2)c2cc(F)ccc2[nH]c1=O [Example 36, 4-[(2-Cyclopropylethynyl)oxy]-6-fluoro-3-(isopropyl)-2(1H)-quinolinone] here?
Answer: 5 to 100 nM

Question: For CCCc1c(OC#CC2CC2)c2cc(F)ccc2[nH]c1=O [Example 37, 4-[(2-Cyclopropylethynyl)oxy]-6-fluoro-3-propyl-2(1H)-quinolinone], which IC50 [1] is on record?
Answer: 5 to 100 nM

Question: With CCCc1c(OC2CCCCC2)c2cc(Cl)ccc2[nH]c1=O [Example 1, 6-Chloro-4-(cyclohexyloxy)-3-propyl-2(1H)-quinolinone] as the molecule, how does the IC50 [1] read?
Answer: 5 to 100 nM
